{"source": "patent EP4813978A1", "about": "“COMPOUND TARGETING UBIQUITIN KRAS PROTEIN DEGRADATION AGENT, AND USE THEREOF” (Betta Pharmaceuticals Co., Ltd, priority 2023, dated 2025)", "key": {"Panc0403": {"tested_on": "Panc0403", "experiment": "Cell proliferation assay (Cell-titer Glo), Panc0403", "type": "cell-based", "details": "Homo sapiens, Panc 04.03, Panc0403, KRAS G12D, 96 h", "method": "(§1) Cells with different mutations were seeded in low-attachment transparent 96-well plates at the seeding densities shown in Table 1, and incubated overnight in a cell culture incubator. After the cells adhered, the test compounds were added to the 96-well plates at final concentrations of 20000 nM, 5000 nM, 1250 nM, 312.5 nM, 78.13 nM, 19.53 nM, 4.88 nM, 1.22 nM, 0.31 nM, 0 nM (the final concentration of DMSO was 0.25% in all wells). After culturing at 37°C for 96 h, 50 µL of Cell-titer Glo working solution was added to each well. The plates were shaken to mix and then incubated at room temperature for 10 min. Luminescence values were read on a multimode microplate reader, and the luminescence data were converted into percentage inhibition. The percentage of cell proliferation inhibition was calculated according to the following formula: Percentage inhibition = (1−(TestValue−Blank)/(MaxValue−Blank)) × 100% [formula]\n(§2) (\"Max value\" is from the 0.25% DMSO control wells, \"Blank\" is from the blank medium control wells, and \"Test Value\" is from the compound-treated wells).\n(§3) Curve fitting was performed using GraphPad Prism software to obtain IC50 (nM) values."}, "AGS": {"tested_on": "AGS", "experiment": "Cell proliferation assay (Cell-titer Glo), AGS", "type": "cell-based", "details": "Homo sapiens, KRAS G12D, 96 h", "method": "as §1, §2, §3"}, "SW620": {"tested_on": "SW620", "experiment": "Cell proliferation assay (Cell-titer Glo), SW620", "type": "cell-based", "details": "Homo sapiens, SW-620, SW620, KRAS G12V, 96 h", "method": "as §1, §2, §3"}, "MKN-1": {"tested_on": "MKN-1", "experiment": "Cell proliferation assay (Cell-titer Glo), MKN-1", "type": "cell-based", "details": "Homo sapiens, MKN-1, KRAS WT-Amp, 96 h", "method": "as §1, §2, §3"}, "AsPC-1": {"tested_on": "AsPC-1", "experiment": "Cell proliferation assay (Cell-titer Glo), AsPC-1", "type": "cell-based", "details": "Homo sapiens, ASPC1, AsPC-1, KRAS G12D, 96 h", "method": "as §1, §2, §3"}, "[1]": {"experiment": "PK study in ICR mice, intravenous single administration", "type": "in vivo", "details": "female, 3 mg/kg", "method": "Compound 115 was mixed with the vehicle 10% DMSO/5% Solutol/85% physiological saline, vortexed and sonicated to prepare a 0.6 mg/mL clear solution. Female ICR mice aged 6 to 7 weeks were selected, not fasted, and administered Compound 115 intravenously. Whole blood was collected at certain time points. Drug concentrations were analyzed by LC-MS/MS method, and pharmacokinetic parameters were calculated using Phoenix WinNonlin software (Pharsight, USA). Table 3. Mouse PK data for intravenous single administration of Compound 115"}, "[2]": {"experiment": "PK study in Beagle dogs, intravenous single administration", "type": "in vivo", "details": "one female and one male, 3 mg/kg", "method": "Compound 115 was mixed with the vehicle 10% DMSO/5% Solutol/85% physiological saline, vortexed and sonicated to prepare a 1.5 mg/mL clear intravenous injection solution. Beagle dogs weighing approximately 10 kg (half male, half female) were selected, not fasted, and administered Compound 115 intravenously. Whole blood samples were collected intravenously at 5 min, 15 min, 30 min, 1 h, 2 h, 4 h, 6 h, 8 h, 10 h, 24 h, 48 h, and 72 h. Drug concentrations were analyzed by LC-MS/MS method, and pharmacokinetic parameters were calculated using Phoenix WinNonlin software (Pharsight, USA). Table 5. Beagle Dog PK data for intravenous single administration of Compound 115"}, "[3]": {"experiment": "PK study in SD rats, intravenous single administration", "type": "in vivo", "details": "male, 3 mg/kg", "method": "Compound 115 was mixed with the vehicle 10% DMSO/5% Solutol/85% physiological saline, vortexed and sonicated to prepare a 1.5 mg/mL clear solution. Male SD rats aged 6 to 7 weeks were selected, fasted for 8 h, and then administered Compound 115 intravenously. Whole blood was collected at certain time points. Drug concentrations were analyzed by LC-MS/MS method, and pharmacokinetic parameters were calculated using Phoenix WinNonlin software (Pharsight, USA). Table 4. Rat PK data for intravenous single administration of Compound 115"}, "HCT116": {"tested_on": "HCT116", "experiment": "Cell proliferation assay (Cell-titer Glo), HCT116", "type": "cell-based", "details": "Homo sapiens, HCT-116, HCT116, KRAS G13D, 96 h", "method": "as §1, §2, §3"}, "H358": {"tested_on": "H358", "experiment": "Cell proliferation assay (Cell-titer Glo), H358", "type": "cell-based", "details": "Homo sapiens, NCI-H358, H358, KRAS G12C, 96 h", "method": "as §1, §2, §3"}, "Mia-Paca2": {"tested_on": "Mia-Paca2", "experiment": "Cell proliferation assay (Cell-titer Glo), Mia-Paca2", "type": "cell-based", "details": "Homo sapiens, MIA PaCa-2, Mia-Paca2, KRAS G12C, 96 h", "method": "as §1, §2, §3"}}}
{"smiles": "CCc1c(F)ccc2cc(O)cc(-c3nc4c5c(nc(OCC6(CN7CCC(Oc8cnc(-c9cn([C@H](C(=O)N%10C[C@H](O)C[C@H]%10C(=O)N[C@@H](C)c%10ccc(-c%11scnc%11C)cc%10)C(C)C)nn9)cn8)CC7)CC6)nc5c3F)N3CCCOC[C@H]3CO4)c12", "note": "[Compound 112, (2S,4R)-1-((S)-2-(4-(5-((1-((1-((((S)-2-(8-ethyl-7-fluoro-3-hydroxynaphthalen-1-yl)-1-fluoro-5a, 6,9,10-tetrahydro-5H,8H-4,7-dioxa-3,10a,11,13-tetraazanaphtho[1,8-ab]heptalen-12-yl)oxy)methyl)cyclopropyl)methyl)piperidin-4-yl)oxy)pyrazin-2-yl)-1H-1,2,3-triazol-1-yl)-3-methylbutanoyl)-4-hydroxy-N-((S)-1-(4-(4-methylthiazol-5-yl)phenyl)ethyl)pyrrolidine-2-carboxamide]", "values": [{"measurement": "IC50", "setting": "Panc0403", "value": 6.5, "unit": "nM"}, {"measurement": "IC50", "setting": "AGS", "value": 4.4, "unit": "nM"}, {"measurement": "IC50", "setting": "SW620", "value": 20, "unit": "nM"}, {"measurement": "IC50", "setting": "MKN-1", "value": 0.4, "unit": "nM"}, {"measurement": "IC50", "setting": "AsPC-1", "value": 2.6, "unit": "nM"}]}
{"smiles": "CCc1c(F)ccc2cc(O)cc(-c3ncc4c(N5CCOC[C@@](C)(O)C5)nc(OCC5(CN6CCC7(CCN(Cc8cnc(-c9cn([C@H](C(=O)N%10C[C@H](O)C[C@H]%10C(=O)N[C@@H](C)c%10ccc(-c%11scnc%11C)cc%10)C(C)C)nn9)cn8)CC7)CC6)CC5)nc4c3F)c12", "note": "[Compound 115, (2S,4R)-1-((S)-2-(4-(5-((9-((1-(((7-(8-ethyl-7-fluoro-3-hydroxynaphthalen-1-yl)-8-fluoro-4-((S)-6-hydroxy-6-methyl-1,4-oxazepan-4-yl)pyrido[4,3-d]pyrimidin-2-yl)oxy)methyl)cyclopropyl)methyl)-3,9-diazaspiro[5.5]undecan-3-yl)methyl)pyrazin-2-yl)-1H-1,2,3-triazol-1-yl)-3-methylbutanoyl)-4-hydroxy-N-((S)-1-(4-(4-methylthiazol-5-yl)phenyl)ethyl)pyrrolidine-2-carboxamide]", "values": [{"measurement": "IC50", "setting": "Panc0403", "value": 5.9, "unit": "nM"}, {"measurement": "Cl_obs", "setting": "[1]", "value": 13.7, "unit": "mL/min/kg"}, {"measurement": "Vss_obs", "setting": "[1]", "value": 9.23, "unit": "L/kg"}, {"measurement": "AUC(0-t)", "setting": "[1]; mouse, in vivo", "value": 3710, "unit": "ng·h/mL"}, {"measurement": "C0", "setting": "[1]; mouse, in vivo", "value": 7510, "unit": "ng/mL"}, {"measurement": "half-life", "setting": "[1]; mouse, in vivo", "value": 13.5, "unit": "h"}, {"measurement": "AUC(0-t)", "setting": "[2]; dog, in vivo", "value": 20700, "unit": "ng·h/mL"}, {"measurement": "C0", "setting": "[2]; dog, in vivo", "value": 22700, "unit": "ng/mL"}, {"measurement": "half-life", "setting": "[2]; dog, in vivo", "value": 23.3, "unit": "h"}, {"measurement": "Cl_obs", "setting": "[2]", "value": 1.96, "unit": "mL/min/kg"}, {"measurement": "Vss_obs", "setting": "[2]", "value": 1.82, "unit": "L/kg"}, {"measurement": "Cl_obs", "setting": "[3]", "value": 5.44, "unit": "mL/min/kg"}, {"measurement": "Vss_obs", "setting": "[3]", "value": 5.06, "unit": "L/kg"}, {"measurement": "AUC(0-t)", "setting": "[3]; rat, in vivo", "value": 9170, "unit": "ng·h/mL"}, {"measurement": "C0", "setting": "[3]; rat, in vivo", "value": 17300, "unit": "ng/mL"}, {"measurement": "half-life", "setting": "[3]; rat, in vivo", "value": 12.7, "unit": "h"}, {"measurement": "IC50", "setting": "AGS", "value": 0.9, "unit": "nM"}, {"measurement": "IC50", "setting": "SW620", "value": 8, "unit": "nM"}, {"measurement": "IC50", "setting": "MKN-1", "value": 0.7, "unit": "nM"}, {"measurement": "IC50", "setting": "AsPC-1", "value": 1.9, "unit": "nM"}, {"measurement": "IC50", "setting": "HCT116", "value": 20, "unit": "nM"}]}
{"smiles": "CCc1c(F)ccc2cc(O)cc(-c3nc4c5c(nc(OCC6(CN7CCC(Oc8cnc(-c9cn([C@H](C(=O)N%10C[C@H](O)C[C@H]%10C(=O)N[C@@H](C)c%10ccc(-c%11scnc%11C)cc%10)C(C)C)nn9)cn8)CC7)CC6)nc5c3F)N3CCCC(C)(O)C3CO4)c12", "note": "(stereo partly drawn) [Compound 133, (2S,4R)-1-((2S)-2-(4-(5-((1-((1-(((5-(8-ethyl-7-fluoro-3-hydroxynaphthalen-1-yl)-4-fluoro-9-hydroxy-9-methyl-8,8a,9,10,11,12-hexahydro-7-oxa-1,3,6,12a-tetraazabenzo[4,5]cyclohepta[1,2,3-de]naphthalen-2-yl)oxy)methyl)cyclopropyl)methyl)piperidin-4-yl)oxy)pyrazin-2-yl)-1H-1,2,3-triazol-1-yl)-3-methylbutanoyl)-4-hydroxy-N-((S)-1-(4-(4-methylthiazol-5-yl)phenyl)ethyl)pyrrolidine-2-carboxamide]", "values": [{"measurement": "IC50", "setting": "H358", "value": 40, "unit": "nM"}, {"measurement": "IC50", "setting": "AGS", "value": 15, "unit": "nM"}, {"measurement": "IC50", "setting": "SW620", "value": 36, "unit": "nM"}, {"measurement": "IC50", "setting": "Mia-Paca2", "value": 26, "unit": "nM"}]}
